Test results taken from patent US4336397A, “2,4-Dioxo-4-substituted-1-butanoic acid derivatives useful in treating urinary tract calcium oxalate lithiasis” (Merck & Co., Inc., priority 1980, dated 1982).

biological target: T1, pig liver glycolate oxidase (Sus scrofa, UniProt I3LVF1); experiment: Glycolate Oxidase Enzyme Inhibition; format: biochemical; conditions: 25° C., 0.10 M phosphate buffer, pH 7.0, 3 mM EDTA; 2×10^-4 M sodium glycolate; initial rates 1 to 3 minutes, 600 nm
T1 construct: The enzyme was pig liver glycolate oxidase; from tissue; host or cells: pig liver
T1 sequence (I3LVF1 1-370): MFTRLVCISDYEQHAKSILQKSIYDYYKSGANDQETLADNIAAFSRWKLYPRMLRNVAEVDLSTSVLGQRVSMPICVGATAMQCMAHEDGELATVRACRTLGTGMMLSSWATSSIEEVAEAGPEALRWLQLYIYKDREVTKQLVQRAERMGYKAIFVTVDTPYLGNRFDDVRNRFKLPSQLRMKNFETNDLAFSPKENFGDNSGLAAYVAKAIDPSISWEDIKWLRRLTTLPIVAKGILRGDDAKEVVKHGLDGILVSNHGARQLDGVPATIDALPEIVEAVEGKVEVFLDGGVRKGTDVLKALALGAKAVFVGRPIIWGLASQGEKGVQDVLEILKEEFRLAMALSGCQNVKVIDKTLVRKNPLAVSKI
Procedure: The usefulness of the compounds of the present invention in treating urinary tract, especially renal, calcium oxalate lithiasis, is shown by the ability of those compounds to inhibit the glycolate oxidase enzyme. […] The activity of the enzyme, in turn, was measured by following the rate of reduction of sodium 2,6-dichlorophenyl-indophenol by sodium glycolate in the presence of the enzyme. The enzyme was pig liver glycolate oxidase. The reaction was followed spectrophotometrically at 600 nm. The assay was conducted at 25° C. in a 0.10 M phosphate buffer, pH 7.0, containing 3 mM EDTA. Initial substrate concentrations were 5×10^-5 M of […] and 2×10^-4 M of sodium glycolate. Reactions were initiated by the addition of enzyme. Initial rates during the period from 1 to 3 minutes after the addition of enzyme were recorded on a Beckman Acta M-VI spectrophotometer. One control was run simultaneously with three reactions, and all initial rates were adjusted to a common control rate. For further details of this procedure, see Randall et al., J. Med. Chem., 22, 6,612 (1979).

Row | IC50 [nM] | SMILES
1 | 670 | CCCCCCCCCc1ccc(C(=O)CC(=O)C(=O)O)cc1 [2,4-dioxo-4-(4-nonylphenyl)-1-butanoic acid]
2 | 2500 | O=C(O)C(=O)CC(=O)c1ccc(C2CCCCC2)cc1 [4-(4-cyclohexylphenyl)-2,4-dioxo-1-butanoic acid]
3 | 2100 | O=C(O)C(=O)CC(=O)c1ccc(C2CCCc3ccccc32)cc1 (centres unmarked) [4-[4-(1,2,3,4-tetrahydro-1-naphthalenyl)phenyl]-2,4-dioxo-1-butanoic acid]
4 | 460 | O=C(O)C(=O)CC(=O)c1ccc(Cc2ccc(Cl)c(Cl)c2)cc1 [4-[4-(3,4-dichlorophenylmethyl)phenyl]-2,4-dioxo-1-butanoic acid]
5 | 70 | O=C(O)C(=O)CC(=O)c1ccc(-c2ccc(Br)cc2)cc1 [4-[(4'-bromo-1,1'-biphenyl)-4-yl]-2,4-dioxo-1-butanoic acid]
